In US11597724B2, “Herbicidally active 3-phenylisoxazoline-5-carboxamides of tetrahydro and dihydrofuran carboxylic acids and esters” (Bayer Aktiengesellschaft, priority 2017, dated 2023):

What was measured:
Format in all cases: in vivo
Echinochloa crus-galli = assay: Post-emergence herbicidal activity against ECHCG; conditions: dosage 320 g/ha, rated about 3 weeks after treatment; for pest or weed control at 320 g/ha: Echinochloa crus-galli, 504 h
Outline: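 Greenhouse pot plants sprayed post-emergence at one-leaf stage (2-3 weeks after sowing) with WP or EC formulations, 0.5% additive, 600 l/ha water. Visual rating about 3 weeks later versus untreated controls: 100% = plants dead, 0% = like control.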

Setaria viridis = assay: Post-emergence herbicidal activity against SETVI; conditions: dosage 320 g/ha, rated about 3 weeks after treatment; for pest or weed control at 320 g/ha: Setaria viridis, 504 h
Outline: (§1)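 Greenhouse weeds in sandy loam were sprayed at the one-leaf stage, 2–3 weeks after sowing, with WP or EC formulations plus 0.5% additive at 600 l/ha water. About 3 weeks later, damage was rated visually against untreated controls, where 100% means plants dead and 0% means like control.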

Polygonum convolvulus = assay: Post-emergence herbicidal activity against POLCO; conditions: dosage 320 g/ha, rated about 3 weeks after treatment; for pest or weed control at 320 g/ha: Fallopia convolvulus, 504 h
Outline: as §1

[1] = Post-emergence treatment, summary over harmful plants; conditions: 504 h, application rate of 0.32 kg of active substance or less per hectare, read-out: herbicidal action, post-emergence treatment (very good herbicidal activity)
Experimental: 2. Post-Emergence Herbicidal Action and Crop Plant Compatibility
Seeds of monocotyledonous and dicotyledonous weeds and crop plants are placed in sandy loam in plastic or wood-fiber pots, covered with soil and cultivated in a greenhouse under controlled growth conditions. 2 to 3 weeks after sowing, the test plants are treated at the one-leaf stage. The compounds of the invention, formulated in the form of wettable powders (WP) or as emulsion concentrates (EC), are then sprayed onto the green parts of the plants as aqueous suspension or emulsion with addition of 0.5% additive at a water application rate of 600 l/ha (converted). After the test plants had been kept in the greenhouse under optimum growth conditions for about 3 weeks, the activity of the preparations is rated visually in comparison to untreated controls. For example, 100% activity=the plants have died, 0% activity=like control plants.
As shown by the results, compounds according to the invention such as, for example, the compounds No. I-35 and other compounds from the tables (for example I-28, I-38, I-01, I-19, I-36, I-29, I-32, I-11, I-12, I-37, I-06, I-09, I-33, I-34, I-13, I-04, I-26, I-21, I-30, I-05, I-03, I-20, I-27, I-14, I-10, I-23, I-07, I-25, I-02, I-08, I-24, I-41, I-42, I-43, I-44, I-46, I-49, I-54, I-55, I-56) have, when used for post-emergence treatment, very good herbicidal activity (80% to 100% herbicidal action) against harmful plants such as Abutilon theophrasti, Alopecurus myosuroides, Amaranthus retroflexus, Avena fatua, Echinochloa crus-galli, Hordeum murinum, Lolium rigidum, Pharbitis purpurea, Polygonum convolvulus, Setaria viridis, Stellaria media, Veronica persica and Viola tricolor at an application rate of 0.32 kg of active substance or less per hectare.

Stellaria media = assay: Pre-emergence herbicidal activity against STEME; conditions: dosage 80 g/ha; for pest or weed control at 80 g/ha: Stellaria media, 504 h
Text: 1. Pre-Emergence Herbicidal Action and Crop Plant Compatibility Seeds of monocotyledonous and dicotyledonous weed plants and crop plants are placed in plastic or wood fiber pots and covered with soil. The compounds of the invention, formulated in the form of wettable powders (WP) or as emulsion concentrates (EC), are then applied onto the surface of the covering soil as aqueous suspension or emulsion with addition of 0.5% additive at a water application rate of 600 l/ha (converted). After the treatment, the pots are placed in a greenhouse and kept under good growth conditions for the trial plants. After about 3 weeks, the effect of the preparations is scored visually in comparison with untreated controls as percentages. For example, 100% activity=the plants have died, 0% activity=like control plants. STEME: Stellaria media VERPE: Veronica persica

Lolium rigidum = assay: Post-emergence herbicidal activity against LOLRI; conditions: dosage 320 g/ha, rated about 3 weeks after treatment; for pest or weed control at 320 g/ha: Lolium rigidum, 504 h
Outline: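 Greenhouse-grown plants sprayed post-emergence at the one-leaf stage, 2 to 3 weeks after sowing, with WP or EC formulations plus 0.5% additive at 600 l/ha water. Activity rated visually after about 3 weeks versus untreated controls (100% = plants dead, 0% = like control).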

Abutilon theophrasti = assay: Post-emergence herbicidal activity against ABUTH; conditions: dosage 320 g/ha, rated about 3 weeks after treatment; for pest or weed control at 320 g/ha: Abutilon theophrasti, 504 h
Outline: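 Greenhouse-grown plants treated at one-leaf stage, 2 to 3 weeks after sowing, with WP or EC formulations sprayed as aqueous suspension/emulsion plus 0.5% additive at 600 l/ha. Activity rated visually about 3 weeks later versus untreated controls (100% = plants dead, 0% = like control).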

Compound | pest or weed control at 320 g/ha (Echinochloa crus-galli) [%] | pest or weed control at 320 g/ha (Setaria viridis) [%] | pest or weed control at 320 g/ha (Polygonum convolvulus) [%] | pest or weed control at 320 g/ha [1] [%] | pest or weed control at 80 g/ha (Stellaria media) [%] | pest or weed control at 320 g/ha (Lolium rigidum) [%] | pest or weed control at 320 g/ha (Abutilon theophrasti) [%] | Pre-emergence herbicidal activity against STEME in % (Stellaria media) [%] | Post-emergence herbicidal activity against ECHCG in % (Echinochloa crus-galli) [%] | Post-emergence herbicidal activity against LOLRI in % (Lolium rigidum) [%] | Post-emergence herbicidal activity against SETVI in % (Setaria viridis) [%] | Post-emergence herbicidal activity against ABUTH in % (Abutilon theophrasti) [%] | Post-emergence herbicidal activity against POLCO in % (Polygonum convolvulus) [%]
COC(=O)[C@H]1C[C@@H](NC(=O)C2(OC)CC(c3ccccc3)=NO2)CO1 (relative stereo) [I-14, methyl cis-4-[(5-methoxy-3-phenyl-4H-isoxazole-5-carbonyl)amino]tetrahydrofuran-2-carboxylate] | 80 | 80 | 90 | 80 to 100 |  |  |  |  |  |  |  |  | 
CC1(C(=O)N[C@H]2CO[C@@H](C(=O)OCc3ccccc3)C2)CC(c2cccc(F)c2)=NO1 (mixture of isomers) [I-34, benzyl cis-4-[[(5RS)-3-(3-fluorophenyl)-5-methyl-4H-isoxazole-5-carbonyl]amino]tetrahydrofuran-2-carboxylate] | 90 | 90 |  | 80 to 100 | 90 | 90 | 80 |  |  |  |  |  | 
C=CC1(C(=O)NC2=C(C(=O)OCC)COC2)CC(c2cc(F)cc(F)c2)=NO1 (stereo not drawn) [I-23, ethyl 4-[[3-(3,5-difluorophenyl)-5-vinyl-4H-isoxazole-5-carbonyl]amino]-2,5-dihydrofuran-3-carboxylate] | 90 |  | 90 | 80 to 100 |  | 90 |  |  |  |  |  |  | 
COC(=O)[C@H]1C[C@@H](NC(=O)C2(OC)CC(c3cc(F)cc(F)c3)=NO2)CO1 (relative stereo) [I-05, methyl cis-4-[[3-(3,5-difluorophenyl)-5-methoxy-4H-isoxazole-5-carbonyl]amino]tetrahydrofuran-2-carboxylate] | 90 | 90 | 90 | 80 to 100 |  |  |  |  |  |  |  |  | 
C=CC1(C(=O)N[C@H]2CO[C@@H](C(=O)OC)C2)CC(c2cc(Cl)cc(Cl)c2)=NO1 (relative stereo) [I-03, methyl cis-4-[[3-(3,5-dichlorophenyl)-5-vinyl-4H-isoxazole-5-carbonyl]amino]tetrahydrofuran-2-carboxylate] | 80 | 80 | 80 | 80 to 100 |  |  |  |  |  |  |  |  | 
COC(=O)[C@H]1C[C@@H](NC(=O)C2(C(F)(F)F)CC(c3cc(F)cc(F)c3)=NO2)CO1 (relative stereo) [I-06, methyl cis-4-[[3-(3,5-difluorophenyl)-5-(trifluoromethyl)-4H-isoxazole-5-carbonyl]amino]tetrahydrofuran-2-carboxylate] | 90 | 80 | 80 | 80 to 100 |  |  |  |  |  |  |  |  | 
COC(=O)[C@@]1(OC)C[C@@H](NC(=O)C2(C)CC(c3cccc(F)c3)=NO2)CO1 (stereo partly drawn) [I-47, methyl (2R,4R)-4-[[3-(3-fluorophenyl)-5-methyl-4H-isoxazole-5-carbonyl]amino]-2-methoxytetrahydrofuran-2-carboxylate] | 100 | 80 | 80 |  |  | 100 | 80 |  |  |  |  |  | 
COC(=O)[C@H]1C[C@H](NC(=O)[C@@]2(C)CC(c3cc(F)cc(F)c3)=NO2)CO1 (mixture of isomers) [I-55, methyl trans-4-[[(5R)-3-(3,5-difluorophenyl)-5-methyl-4H-isoxazole-5-carbonyl]amino]tetrahydrofuran-2-carboxylate] | 90 | 90 | 90 | 80 to 100 |  | 90 | 90 |  |  |  |  |  | 
C=C[C@]1(C(=O)N[C@@H]2CO[C@@H](C(=O)OC)C2)CC(c2cc(F)cc(F)c2)=NO1 (mixture of isomers) [I-56, methyl trans-4-[[(5S)-3-(3,5-difluorophenyl)-5-vinyl-4H-isoxazole-5-carbonyl]amino]tetrahydrofuran-2-carboxylate] | 90 | 90 | 90 | 80 to 100 |  | 90 | 90 |  |  |  |  |  | 
CCOC(=O)[C@H]1C[C@@H](NC(=O)C2(C)CC(c3cccc(F)c3)=NO2)CO1 (mixture of isomers) [I-30, ethyl cis-4-[[(5RS)-3-(3-fluorophenyl)-5-methyl-4H-isoxazole-5-carbonyl]amino]tetrahydrofuran-2-carboxylate] | 80 | 90 | 80 | 80 to 100 | 90 | 100 |  |  |  |  |  |  | 
COC(=O)[C@H]1C[C@@H](NC(=O)C2(C)CC(c3cc(C)cc(Br)c3)=NO2)CO1 (relative stereo) [I-04, methyl cis-4-[[3-(3-bromo-5-methylphenyl)-5-methyl-4H-isoxazole-5-carbonyl]amino]tetrahydrofuran-2-carboxylate] | 90 | 80 | 80 | 80 to 100 |  |  |  |  |  |  |  |  | 
CC(C)OC(=O)[C@H]1C[C@@H](NC(=O)C2(C)CC(c3cccc(F)c3)=NO2)CO1 (mixture of isomers) [I-32, isopropyl cis-4-[[(5RS)-3-(3-fluorophenyl)-5-methyl-4H-isoxazole-5-carbonyl]amino]tetrahydrofuran-2-carboxylate] | 90 | 90 | 80 | 80 to 100 | 90 | 100 | 80 |  |  |  |  |  | 
COC(=O)C1=C[C@H](NC(=O)C2(C)CC(c3cccc(F)c3)=NO2)CO1 (stereo partly drawn) [I-39, methyl (3S)-3-[[3-(3-fluorophenyl)-5-methyl-4H-isoxazole-5-carbonyl]amino]-2,3-dihydrofuran-5-carboxylate] | 100 | 90 | 80 |  |  | 100 | 80 |  |  |  |  |  | 
C=CC1(C(=O)N[C@H]2CO[C@@H](C(=O)OC)C2)CC(c2cccc(F)c2)=NO1 (relative stereo) [I-07, methyl cis-4-[[3-(3-fluorophenyl)-5-vinyl-4H-isoxazole-5-carbonyl]amino]tetrahydrofuran-2-carboxylate] | 80 | 80 | 80 | 80 to 100 |  |  |  |  |  |  |  |  | 
CC1(C(=O)NC2COC(C(=O)O)C2)CC(c2cc(F)cc(F)c2)=NO1 (mixture of isomers) [I-41] |  |  |  |  |  |  |  | 100 | 100 | 100 | 90 | 80 | 90
